From patent US12357618B2, “Rapamycin (RAPA) self-microemulsifying injection and preparation method and use thereof” (priority 2022, dated 2025)

Test: Solubility of RAPA in the drug solvent of the stock solution
Format: physicochemical
Conditions: organic solvent or mixture; drug solvent of two or more solvents (absolute ethanol and latent solvent)
Text: In the RAPA self-microemulsifying injection of the present disclosure, the drug solvent includes absolute ethanol and a latent solvent, and the latent solvent is one or more selected from the group consisting of propylene glycol (PG), polyethylene glycol (PEG) 300, and PEG 400. The drug solvent of the present disclosure is a mixed solvent of two or more solvents in different proportions to dissolve RAPA, which can greatly improve the solubility of RAPA.

CO[C@H]1C[C@@H]2CC[C@@H](C)[C@@](O)(O2)C(=O)C(=O)N2CCCC[C@H]2C(=O)O[C@H]([C@H](C)C[C@@H]2CC[C@@H](O)[C@H](OC)C2)CC(=O)[C@H](C)/C=C(\C)[C@@H](O)[C@@H](OC)C(=O)[C@H](C)C[C@H](C)/C=C/C=C/C=C/1C [RAPA, rapamycin]
solubility: ≤ 60 mg/mL
